One assay has as its target Prothrombin (Homo sapiens, UniProt P00734). The assay is described as follows: In vitro inhibition of thrombin.
The target of a further assay is Coagulation factor X (Homo sapiens, UniProt P00742). The assay is described as follows: In vitro inhibition of coagulation factor X.
A further assay concerns the target T1, Coagulation factor VII (Homo sapiens, UniProt P08709).
T1 sequence (P08709 whole entry): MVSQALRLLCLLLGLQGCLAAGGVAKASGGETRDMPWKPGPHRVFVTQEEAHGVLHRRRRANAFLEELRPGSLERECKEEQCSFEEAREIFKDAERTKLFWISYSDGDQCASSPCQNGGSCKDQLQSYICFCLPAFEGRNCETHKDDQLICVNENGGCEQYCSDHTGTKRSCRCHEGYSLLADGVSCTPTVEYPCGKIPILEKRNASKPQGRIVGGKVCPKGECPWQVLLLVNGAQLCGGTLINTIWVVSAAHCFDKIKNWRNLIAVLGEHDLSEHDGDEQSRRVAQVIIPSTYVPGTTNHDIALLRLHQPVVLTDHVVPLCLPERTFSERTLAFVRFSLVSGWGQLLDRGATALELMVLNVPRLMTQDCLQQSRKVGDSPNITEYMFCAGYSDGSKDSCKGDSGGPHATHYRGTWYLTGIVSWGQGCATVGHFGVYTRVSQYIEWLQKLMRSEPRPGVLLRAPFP
Kind of assay: In vitro inhibition of human coagulation factor VIIa.

Sequence of Coagulation factor X (P00742 41-179 limits assumed): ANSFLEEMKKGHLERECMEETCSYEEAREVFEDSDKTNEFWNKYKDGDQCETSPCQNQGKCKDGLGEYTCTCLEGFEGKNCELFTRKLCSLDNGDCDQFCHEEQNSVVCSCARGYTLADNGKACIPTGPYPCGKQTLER
Sequence of Coagulation factor X (P00742 235-488 limits assumed): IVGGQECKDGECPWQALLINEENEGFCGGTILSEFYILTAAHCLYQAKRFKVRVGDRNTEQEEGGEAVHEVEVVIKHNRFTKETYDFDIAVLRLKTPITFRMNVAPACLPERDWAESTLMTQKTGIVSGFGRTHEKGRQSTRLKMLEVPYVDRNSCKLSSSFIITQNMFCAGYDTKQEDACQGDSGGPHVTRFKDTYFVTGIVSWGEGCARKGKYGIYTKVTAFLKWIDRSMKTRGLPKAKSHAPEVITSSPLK

The term Ki denotes a measure of affinity in units of concentration, obtained from inhibition or displacement. A high value points to lower affinity. As to `CC(=O)Nc1ccc(C(C)NC(=O)CNC(=O)Nc2ccc(C(=N)N)cc2)cc1` (stereo not given), the Ki on Prothrombin is more than 50 µM; on Coagulation factor X it was more than 10 µM; on Coagulation factor VII, 0.196 µM.

For the molecule `CC(NC(=O)CNC(=O)Nc1ccc(C(=N)N)cc1)c1ccc(Cl)c(Cl)c1` (stereo not given), at Coagulation factor VII, the affinity, expressed as Ki, was 0.077 µM. This lies in the double-digit nanomolar range.

For `C[C@H](NC(=O)CNC(=O)Nc1ccc(C(=N)N)cc1)c1ccc(Br)cc1`, the Ki was 6.76 µM at Prothrombin, more than 10 µM on Coagulation factor X and 0.156 µM at Coagulation factor VII.

For the molecule `CC(NC(=O)CNC(=O)Nc1ccc(C(=N)N)cc1)c1ccc(N2CCOCC2)c(C(F)(F)F)c1` (stereo not given), the figures for the Ki on Prothrombin, on Coagulation factor X and at Coagulation factor VII were 1.9 µM, more than 10 µM and 0.03 µM, respectively.

Turning to `CC(NC(=O)CNC(=O)Nc1ccc(C(=N)N)cc1)c1ccc(NC(=O)C2CC2)cc1` (stereo not given), the Ki was 14.5 µM at Prothrombin, more than 10 µM at Coagulation factor X and 0.047 µM on Coagulation factor VII.

For the molecule `CC(NC(=O)CNC(=O)Nc1ccc(C(=N)N)cc1)c1ccc(N2CCOCC2)cc1` (stereo not given), the results for the Ki at Prothrombin, on Coagulation factor X and on Coagulation factor VII were 3.2 µM, more than 10 µM and 0.142 µM, respectively.

Turning to `CC(NC(=O)CNC(=O)Nc1ccc(C(=N)N)cc1)c1ccc(NC(=O)c2cccc(Oc3ccccc3)c2)cc1` (stereo not given), the Ki on Prothrombin is 33.2 µM; at Coagulation factor X, more than 10 µM.

At Coagulation factor VII, `CC(NC(=O)CNC(=O)Nc1ccc(C(=N)N)cc1)c1ccc(Cc2ccccc2)cc1` (stereo not given) displayed a Ki of 0.19 µM.

Turning to `COc1cccc(COc2ccc(C(C)NC(=O)CNC(=O)Nc3ccc(C(=N)N)cc3)cc2)c1` (stereo not given), the Ki was 2.3 µM on Prothrombin, more than 10 µM on Coagulation factor X and 0.02 µM on Coagulation factor VII.

For `CC(NC(=O)CNC(=O)Nc1ccc(C(=N)N)cc1)c1ccc(OCc2cccc(Cl)c2)cc1` (stereo not given), the Ki on Prothrombin is 2.3 µM; at Coagulation factor X it was more than 10 µM; on Coagulation factor VII, 0.023 µM.

For `CC(NC(=O)CNC(=O)Nc1ccc(C(=N)N)cc1)c1ccc(C(=O)Nc2cccc(Oc3ccccc3)c2)cc1` (stereo not given), the Ki on Prothrombin is 11.9 µM; on Coagulation factor X, more than 10 µM; at Coagulation factor VII, 0.043 µM.

Regarding `CC(NC(=O)CNC(=O)Nc1ccc(C(=N)N)cc1)c1ccc(NC(=O)c2ccccc2)cc1` (stereo not given), the Ki came to 14.8 µM at Prothrombin, 4.6 µM at Coagulation factor X and 0.034 µM on Coagulation factor VII.

Take `COC(=O)c1cc(C(C)NC(=O)CNC(=O)Nc2ccc(C(=N)N)cc2)ccc1OCc1ccccc1` (stereo not given): the Ki on Prothrombin was 0.5 µM; on Coagulation factor X, more than 10 µM.

For the molecule `CC(NC(=O)CNC(=O)Nc1ccc(C(=N)N)cc1)c1ccc(OCc2ccccc2)cc1` (stereo not given), the affinity at Coagulation factor VII corresponds to a Ki of 0.133 µM. In other words, the sub-micromolar range.

For `C[C@H](NC(=O)CNC(=O)Nc1ccc(C(=N)N)cc1)c1ccc2ccccc2c1`, the Ki on Prothrombin was determined as 3.18 µM; on Coagulation factor X, 6.23 µM.

In the case of `C[C@@H](NC(=O)CNC(=O)Nc1ccc(C(=N)N)cc1)c1ccc2ccccc2c1`, the Ki at Coagulation factor VII was determined as 7 µM. In other words, the single-digit micromolar range.

For `CC(NC(=O)CNC(=O)Nc1ccc(C(=N)N)cc1)c1ccc(NC(=O)C2CCNCC2)cc1` (stereo not given), the Ki at Prothrombin was 68.5 µM; at Coagulation factor X, more than 10 µM.

With `CC(NC(=O)CNC(=O)Nc1ccc(C(=N)N)cc1)c1ccc(Oc2ccccc2)cc1` (stereo not given), the Ki on Prothrombin was 9.1 µM; on Coagulation factor X, more than 10 µM; at Coagulation factor VII, 0.078 µM.

Regarding `N=C(N)c1ccc(NC(=O)NCC(=O)NCc2ccc(Cl)c(Cl)c2)cc1`, the Ki at Coagulation factor X was found to be 14.5 µM.

In the case of `Cc1cccc(C(=O)Nc2ccc(C(C)NC(=O)CNC(=O)Nc3ccc(C(=N)N)cc3)cc2)c1` (stereo not given), the Ki at Prothrombin was 10.9 µM; at Coagulation factor X, more than 10 µM; at Coagulation factor VII it was 0.026 µM.

In turn, `CC(NC(=O)CNC(=O)Nc1ccc(C(=N)N)cc1)c1cccc(OCc2ccccc2)c1` (stereo not given) came in with a Ki on Coagulation factor VII of 0.256 µM.

As to `COc1ccc(Oc2ccc(C(C)NC(=O)CNC(=O)Nc3ccc(C(=N)N)cc3)cc2)cc1` (stereo not given), the figures for the Ki on Prothrombin and on Coagulation factor X were 9.8 µM and 10.7 µM, respectively.

Turning to `CC(NC(=O)CNC(=O)Nc1ccc(C(=N)N)cc1)c1ccc(C(=O)Nc2ccccc2)cc1` (stereo not given), the Ki is 12.1 µM on Prothrombin, more than 10 µM at Coagulation factor X and 0.02 µM at Coagulation factor VII.

For the molecule `CC(NC(=O)CNC(=O)Nc1ccc(C(=N)N)cc1)c1ccc(N2CCOCC2)c(Br)c1` (stereo not given), the results for the Ki at Prothrombin, on Coagulation factor X and at Coagulation factor VII were 0.65 µM, more than 10 µM and 0.015 µM, respectively.
